In the NIST ThermoML archive (doi:10.1021/acs.jced.5b00011):
± gives the expanded uncertainty stated by the source. Blank lines part the entries; values can stand above or below the compound they belong to.

Conditions: Liquid, Ebulliometric method (Recirculating still)

vapor or sublimation pressure (439.25 K): 101.33 ± 0.58 kPa
Compound: CC(=O)N(C)C [N,N-dimethylethanamide]

vapor or sublimation pressure (353.25 K): 101.33 ± 0.55 kPa
Compound: c1ccccc1 [benzene]

vapor or sublimation pressure (353.85 K): 101.33 ± 0.55 kPa
Compound: C1CCCCC1 [cyclohexane]

vapor or sublimation pressure (356.15 K): 101.33 ± 0.55 kPa
Compound: C1=CCCCC1 [cyclohexene]
